Measurements: BindingDB's records for doi:10.1021/ml100283h (2011)

Key:
[1] = molecular target: T1, Cytochrome P450 11B2, mitochondrial (Homo sapiens, UniProt P19099); assay: Inhibition of human CYP11B2 expressed in hamster V79 MZ cells using [3H] 11 deoxycorticosterone as substrate by HPLC radioflow detector
T1 sequence (P19099 whole entry): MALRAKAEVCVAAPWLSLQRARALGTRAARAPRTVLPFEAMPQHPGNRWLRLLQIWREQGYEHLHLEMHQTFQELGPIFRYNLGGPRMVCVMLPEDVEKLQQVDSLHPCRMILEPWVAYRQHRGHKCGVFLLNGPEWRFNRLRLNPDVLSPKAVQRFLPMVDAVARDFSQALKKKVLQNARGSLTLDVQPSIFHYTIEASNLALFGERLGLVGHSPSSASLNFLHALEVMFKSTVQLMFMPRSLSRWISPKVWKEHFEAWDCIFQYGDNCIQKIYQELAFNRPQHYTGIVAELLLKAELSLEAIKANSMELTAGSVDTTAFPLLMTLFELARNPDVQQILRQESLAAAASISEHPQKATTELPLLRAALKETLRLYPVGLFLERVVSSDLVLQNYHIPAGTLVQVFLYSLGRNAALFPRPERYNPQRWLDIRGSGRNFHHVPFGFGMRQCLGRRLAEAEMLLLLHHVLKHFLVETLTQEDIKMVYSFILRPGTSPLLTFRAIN

[2] = molecular target: T2, Cytochrome P450 11B1, mitochondrial (Homo sapiens, UniProt P15538); assay: Inhibition of human CYP11B1 expressed in hamster V79 MZ cells using [3H] 11 deoxycorticosterone as substrate by HPLC radioflow detector
T2 sequence (P15538 whole entry): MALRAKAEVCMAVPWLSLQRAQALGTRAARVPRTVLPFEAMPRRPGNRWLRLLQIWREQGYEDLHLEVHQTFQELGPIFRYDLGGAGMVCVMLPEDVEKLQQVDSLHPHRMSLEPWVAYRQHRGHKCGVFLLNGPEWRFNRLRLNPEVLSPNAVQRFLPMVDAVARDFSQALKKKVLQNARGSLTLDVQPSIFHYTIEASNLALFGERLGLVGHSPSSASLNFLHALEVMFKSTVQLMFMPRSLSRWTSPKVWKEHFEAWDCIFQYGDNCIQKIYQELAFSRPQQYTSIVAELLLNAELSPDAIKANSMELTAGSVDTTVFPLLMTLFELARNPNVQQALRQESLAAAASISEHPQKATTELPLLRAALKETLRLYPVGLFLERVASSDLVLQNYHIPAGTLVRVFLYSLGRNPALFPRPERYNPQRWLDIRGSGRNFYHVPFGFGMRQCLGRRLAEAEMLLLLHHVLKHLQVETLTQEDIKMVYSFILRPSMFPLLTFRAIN

Molecule `c1ccc(-c2ccc(Cn3ccnc3)cn2)cc1` [5-((1H-imidazol-1-yl)methyl)-2-phenylpyridine] has an IC50 [1] of 2770 nM and an IC50 [2] of 152 nM.
